# Laboratory results taken from PMC9367601 (Cancers, 2022).
# Molecular target: T1, Epidermal Growth Factor Receptor (EGFR), extracellular domain (EGFR-ECD) (Homo sapiens, UniProt P00533)
# T1 construct: full-length EGFR in DiscoverX PathHunter enzyme-complementation cells, EGF-stimulated
# Experiment: cell-based
# Parameters: DiscoverX PathHunter EGFR dimerization/activation assay, chemiluminescence
# Details: not given
# Protocol: The inhibition of the EGFR dimerization assay was conducted using the PathHunter kit following the producer instructions and with cetuximab as a positive control. For IC50 determination, the selected compounds were tested at different concentration (range 0.1–100 µM) and the IC50 values were calculated by the four parameters logistic (4-PL) model. Evaluation was based on means from at least four independent experiments. The discovery of orally available small molecules able to impair the EGFR activation targeting the extracellular domain could be of great interest for cancer treatment. To pursue this goal, a suitable high/medium throughput screening method is required. In this respect, a commercially available kit (PathHunter® from DiscoverX©; San Francisco, CA, USA) for the screening of compounds able to prevent EGFR activation (either dimerization or autophosphorylation) has been developed in recent years. This assay measures the chemiluminescent signal produced as a consequence of ligand-induced dimerization/activation of EGFR [16]. Our interest in kinase inhibitors and the readily availability of such kit prompted us to start a campaign for the discovery of small molecules targeting the extracellular domain of EGFR.
# T1 sequence (P00533 25-1210): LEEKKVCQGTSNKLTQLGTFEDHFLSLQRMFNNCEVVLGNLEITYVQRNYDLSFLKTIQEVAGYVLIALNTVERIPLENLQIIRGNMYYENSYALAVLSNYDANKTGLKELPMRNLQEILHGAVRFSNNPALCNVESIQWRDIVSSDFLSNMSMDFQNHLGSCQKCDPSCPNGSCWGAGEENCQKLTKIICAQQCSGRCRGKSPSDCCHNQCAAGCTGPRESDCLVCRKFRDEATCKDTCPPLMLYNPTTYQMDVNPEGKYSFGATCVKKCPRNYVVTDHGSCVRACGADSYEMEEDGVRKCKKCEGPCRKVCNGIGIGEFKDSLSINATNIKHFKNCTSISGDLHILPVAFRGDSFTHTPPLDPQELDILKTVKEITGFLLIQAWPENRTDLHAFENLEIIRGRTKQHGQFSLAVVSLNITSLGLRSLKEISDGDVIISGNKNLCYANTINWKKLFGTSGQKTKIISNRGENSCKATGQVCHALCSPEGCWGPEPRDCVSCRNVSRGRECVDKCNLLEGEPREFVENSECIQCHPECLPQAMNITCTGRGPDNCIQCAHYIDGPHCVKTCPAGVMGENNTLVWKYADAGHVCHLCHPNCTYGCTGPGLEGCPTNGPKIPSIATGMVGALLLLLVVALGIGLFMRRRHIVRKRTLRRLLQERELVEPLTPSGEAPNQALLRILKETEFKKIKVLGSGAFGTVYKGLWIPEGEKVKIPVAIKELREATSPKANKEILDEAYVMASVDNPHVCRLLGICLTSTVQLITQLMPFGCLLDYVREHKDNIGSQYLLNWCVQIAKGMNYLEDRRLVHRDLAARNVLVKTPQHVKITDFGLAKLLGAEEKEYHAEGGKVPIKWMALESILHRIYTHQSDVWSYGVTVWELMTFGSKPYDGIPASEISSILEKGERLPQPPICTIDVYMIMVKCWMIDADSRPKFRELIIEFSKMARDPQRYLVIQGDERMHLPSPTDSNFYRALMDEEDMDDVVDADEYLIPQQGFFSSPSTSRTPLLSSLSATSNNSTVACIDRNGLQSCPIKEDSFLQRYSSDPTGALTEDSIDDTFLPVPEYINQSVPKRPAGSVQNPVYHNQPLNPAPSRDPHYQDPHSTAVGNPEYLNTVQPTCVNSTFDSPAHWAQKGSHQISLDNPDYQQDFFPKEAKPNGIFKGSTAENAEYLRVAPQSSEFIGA
inhibition at 10 µM [%],inhibition at 50 µM [%],SMILES
40 ± 1,50 ± 1,Cc1c(CC(=O)Nc2ccc(NS(C)(=O)=O)cc2)c(=O)oc2c(C)c3oc4c(c3cc12)CCCC4 [DSF051]
41 ± 4,49 ± 2,CC(=O)Nc1ccc(NC(=O)Cc2c(C)c3cc4c5c(oc4c(C)c3oc2=O)CCCC5)cc1 [DSF052]
39 ± 5,43 ± 1,Cc1c(CC(=O)Nc2ccc(C(N)=O)cc2)c(=O)oc2c(C)c3oc4c(c3cc12)CCCC4 [DSF053]
8 ± 4,46 ± 4,Cc1c(C)c2cc3c4c(oc3c(O)c2oc1=O)CCCC4 [DSF054]
46 ± 1,46 ± 5,Cc1oc2c(C)c3oc(=O)c(CC(=O)NCc4ccccc4Cl)c(C)c3cc2c1C [DSF055]
0,22 ± 5,Cc1ccc(NC(=O)Nc2ccc(Nc3cc(-c4ccccc4)ncn3)cc2)cc1 [DSF056]
17 ± 2,44 ± 5,O=C(Nc1ccc(Nc2cc(-c3ccccc3)ncn2)cc1)Nc1ccc(C(=O)O)cc1 [DSF057]
12 ± 2,5 ± 5,COc1cccc(Nc2ncc(C(=O)O)c(O)n2)c1 [DSF058]
0,0,Cc1ccc([N+](=O)[O-])cc1Nc1nccc(-c2cccnc2)n1 [DSF059]
0,0,Cc1nc(Cl)cc(Nc2ncc(C(=O)O)s2)n1 [DSF060]
20 ± 4,1 ± 1,O=C(NC(=O)c1ccccc1)Nc1cccc(Oc2ncc(Cl)cn2)c1 [DSF061]
9 ± 3,21 ± 2,O=C(NC(=S)Nc1cccc(Oc2ncc(Cl)cn2)c1)c1ccccc1 [DSF062]
0,5 ± 5,O=C(NC(=O)c1ccccc1[N+](=O)[O-])Nc1cccc(Oc2ncc(Cl)cn2)c1 [DSF063]
0,0,CCc1cnc(Oc2cccc(NC(=O)NC(=O)c3ccccc3)c2)nc1 [DSF064]
0,22 ± 5,CCc1cnc(Oc2cccc(NC(=S)NC(=O)c3ccccc3)c2)nc1 [DSF065]
0,0,CCc1cnc(Oc2cccc(NC(=O)NC(=O)c3ccccc3[N+](=O)[O-])c2)nc1 [DSF066]
42 ± 5,42 ± 1,O=C(O)Cc1ccc(/N=C2/C(=O)Nc3ccccc32)cc1 [DSF067]
37 ± 5,56 ± 4,O=C(O)Cc1ccc(/N=C2/C(=O)Nc3ccc(Br)cc32)cc1 [DSF068]
27 ± 5,56 ± 2,O=C1Nc2ccccc2/C1=N\c1cccc(C(F)(F)F)c1 [DSF069]

inhibition at 10 µM [%],inhibition at 50 µM [%],SMILES
20 ± 5,41 ± 1,COc1ccc(OC)c(/N=C2/C(=O)Nc3ccc(Br)cc32)c1 [DSF070]
0,0,CC(=O)Nc1ccc(/C=C2/N=C(c3cccc(C(=O)O)c3)OC2=O)cc1 [DSF071]
16 ± 4,39 ± 2,COc1cc(/C=C2/N=C(c3ccccc3)OC2=O)ccc1OC(C)=O [DSF072]
23 ± 1,36 ± 3,CN(C)c1ccc(/C=C2/N=C(c3ccccc3)OC2=O)cc1 [DSF073]
10 ± 3,48 ± 2,O=C1OC(c2ccccc2)=N/C1=C/c1cnc2ccccc2c1 [DSF074]
18 ± 5,34 ± 4,O=C1OC(c2ccccc2)=N/C1=C/c1ccc[nH]1 [DSF075]
25 ± 2,18 ± 4,COc1ccc(/C=C2/N=C(c3ccccc3)OC2=O)cc1 [DSF076]
7 ± 1,39 ± 1,CC(=O)n1cc(/C=C2/N=C(c3ccccc3)OC2=O)c2ccccc21 [DSF077]
7 ± 1,37 ± 4,CC(=O)Nc1ccc(/C=C2/N=C(c3cccnc3Cl)OC2=O)cc1 [DSF078]
3 ± 1,41 ± 2,COc1ccc([N+](=O)[O-])c(C2=NC(=Cc3ccc(NC(C)=O)cc3)C(=O)O2)c1 [DSF079]
11 ± 5,28 ± 3,CC(=O)Nc1ccc(C=C2N=C(c3ccc([N+](=O)[O-])cc3O)OC2=O)cc1 [DSF080]
21 ± 5,26 ± 1,O=C(O)Cc1ccc(S(=O)(=O)Nc2ccccc2)cc1 [DSF081]
19 ± 2,29 ± 3,O=C(O)c1ccc(NS(=O)(=O)c2ccc(Cl)cc2[N+](=O)[O-])cc1 [DSF084]
0,36 ± 5,O=C(O)c1ccc(NS(=O)(=O)c2ccc(Cl)cc2[N+](=O)[O-])cc1O [DSF085]
0,19 ± 4,O=[N+]([O-])c1cc(Cl)ccc1S(=O)(=O)Nc1cccc(Cl)c1 [DSF086]
2 ± 3,36 ± 4,CCOC(=O)c1ccc(NS(=O)(=O)c2ccc(Cl)cc2[N+](=O)[O-])cc1 [DSF087]
0,22 ± 3,COc1ccc(OC)c(NS(=O)(=O)c2ccc(Cl)cc2[N+](=O)[O-])c1 [DSF088]
20 ± 5,22 ± 4,O=[N+]([O-])c1cc(Cl)ccc1S(=O)(=O)N1CCOCC1 [DSF089]
12 ± 2,19 ± 1,O=[N+]([O-])c1cc(Cl)ccc1S(=O)(=O)N1CCCCC1 [DSF090]

# Same assay, conditions: inhibitor; % inhibition @ 10 uM, 10 µM
row,% inhibition @ 10 uM [%],SMILES
1,16 ± 1,Cc1cccc(C)c1NS(=O)(=O)c1ccc(CC(=O)O)cc1 [DSF082]
2,36 ± 4,Cc1cccc(C)c1NS(=O)(=O)c1ccc(CC(=O)O)cc1 [DSF083]

# Same assay, conditions: inhibitor; % inhibition @ 50 uM, 50 µM
row,% inhibition @ 50 uM [%],SMILES
1,19 ± 5,Cc1cccc(C)c1NS(=O)(=O)c1ccc(CC(=O)O)cc1 [DSF082]
2,49 ± 3,Cc1cccc(C)c1NS(=O)(=O)c1ccc(CC(=O)O)cc1 [DSF083]

# Molecular target: T1, Epidermal Growth Factor Receptor (EGFR), extracellular domain (EGFR-ECD)
# Experiment: SPR competition: dose-dependent decrease of EGF binding to immobilized EGFR-ECD (no SPR value printed); the IC50 is from the PathHunter cell EGFR dimerization assay
# Assay type: cell-based
# Details: not given
row,IC50 [µM],SMILES
1,13.2 ± 2.1,O=C1Nc2ccc([N+](=O)[O-])cc2C1=Nc1cccc(C(F)(F)F)c1 [DSF-102]

# Molecular target: Epidermal Growth Factor Receptor (EGFR) (Homo sapiens, UniProt P00533)
# Experiment: PathHunter cell-based EGFR dimerization assay, dose-response
# Details: not given
# Chain of Epidermal Growth Factor Receptor (EGFR) (P00533 25-1210): as above
row,IC50 [µM],SMILES
1,38.8 ± 3.6,O=C1Nc2ccc(Br)cc2C1=Nc1cccc(C(F)(F)F)c1 [DSF-097]
2,27.7 ± 4.5,O=C1Nc2cc(Cl)c(F)cc2C1=Nc1cccc(C(F)(F)F)c1 [DSF-099]
